{"source": "patent US8093183B2", "about": "“Methods for using polyol esters to control pests” (S.C. Johnson & Son, Inc., priority 2004, dated 2012)", "system": "German cockroaches", "conditions": "spraying about three grams of formulation", "description": "In our experiments we created aqueous solutions of sucrose octanoate and sorbitol octanoate by diluting the more concentrated formulations provided by the aforesaid manufacturers. We created varied concentrations ranging from 0.05% through 10%.\nWe tested our formulations by spraying them on cockroaches, ants, crickets, silverfish, wasps, bristletails, hornets, centipedes, earwigs, spiders and sowbugs.", "note": "Like-named read-outs stand apart in the source and are kept apart here."}
{"substance": "sucrose octanoate", "values": [{"measurement": "kill at 24 hours", "setting": "0.1% concentration", "value": "essentially no kill"}, {"measurement": "kill at 24 hours", "setting": "1% concentration", "value": "about 80%"}, {"measurement": "kill", "setting": "5% concentration", "value": 100, "unit": "%"}]}
